Values joined by “and” are separate entries in the source; they are usually repeats but may differ in a detail not shown here. Equal entries are not always repeated.
Columns and labels:
Genome polyprotein [1] = target: T1, Genome polyprotein (dengue virus type 2, UniProt P29990); type: functional, Thailand/16681/1984
Genome polyprotein [2] = target: T1, Genome polyprotein; type: functional, Thailand/16681/1984; remark: listed apart in the source

T1 sequence (P29990 1346-1475 limits assumed): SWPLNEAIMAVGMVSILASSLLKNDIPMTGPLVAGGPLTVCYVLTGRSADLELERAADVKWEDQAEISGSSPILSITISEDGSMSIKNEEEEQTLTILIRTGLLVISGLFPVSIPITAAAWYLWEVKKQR
T1 sequence (P29990 1476-2093 limits assumed): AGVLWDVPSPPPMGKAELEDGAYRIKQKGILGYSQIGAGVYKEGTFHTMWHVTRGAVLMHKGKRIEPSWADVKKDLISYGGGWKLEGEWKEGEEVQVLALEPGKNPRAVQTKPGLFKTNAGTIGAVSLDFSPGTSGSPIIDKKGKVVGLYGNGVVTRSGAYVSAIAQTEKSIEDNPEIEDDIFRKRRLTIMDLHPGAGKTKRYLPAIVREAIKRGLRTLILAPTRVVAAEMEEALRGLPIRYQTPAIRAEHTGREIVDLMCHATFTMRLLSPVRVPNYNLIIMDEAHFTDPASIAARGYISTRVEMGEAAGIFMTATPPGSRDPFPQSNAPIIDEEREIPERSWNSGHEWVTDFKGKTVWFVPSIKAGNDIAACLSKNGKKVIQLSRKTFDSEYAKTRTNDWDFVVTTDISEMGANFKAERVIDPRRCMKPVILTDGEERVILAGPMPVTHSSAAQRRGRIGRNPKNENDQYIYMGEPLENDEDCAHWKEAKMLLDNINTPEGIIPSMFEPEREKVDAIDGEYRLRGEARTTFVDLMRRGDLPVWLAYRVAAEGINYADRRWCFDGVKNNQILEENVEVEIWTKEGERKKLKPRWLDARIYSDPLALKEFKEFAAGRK

Row | Compound | IC50 (Genome polyprotein [1]) [µM] | IC50 (Genome polyprotein [2])
1 | Cc1c(C(=O)Nc2cccc(CS(C)(=O)=O)c2)cc(C2CC2)n1C | > 99.5 | > 100 µM
2 | O=C(NCC(F)F)[C@H](Nc1ncc2c(n1)CNC2)c1cc(Cl)cc(C2CC2)c1 | > 99.5 | > 100 µM
3 | NC(=O)COc1ccc(Br)cc1[C@H](Nc1ccc2c(c1)CNC2)C(=O)NCC(F)F | > 99.5 | > 100 µM
4 | Cn1nc(CNc2cc(-c3cccnc3)ccn2)cc1C1CC1 | > 99.5 | > 100 µM
5 | CC(=O)N(c1ccc2c(c1)CNC2)[C@]1(c2cc(Cl)cc(C3CC3)c2)CN(C)C1=O | > 99.5 | > 100 µM
6 | CO[C@H]1Cc2ccc(NC(=O)c3cc(C4CC4)n(C)c3C)cc2C1 | > 99.5 | > 100 µM
7 | Cc1c(C(=O)Nc2ccc3c(c2)C[C@H](C(N)=O)O3)cc(C2CC2)n1C | > 99.5 | > 100 µM
8 | Cc1c(C(=O)Nc2ccc3c(c2)CCC(=O)N3CC2CCC2)cc(C2CC2)n1C | > 99.5 | > 100 µM
9 | Clc1cc(CNc2ncc3c(n2)CNC3)c2cn[nH]c2c1 | > 99.5 | > 100 µM
10 | Clc1cc(CNc2ccc3c(n2)CNC3)c2cn[nH]c2c1 | > 99.5 | > 100 µM
11 | Cc1c(C(=O)Nc2cccc(-c3nc(C4CC4)no3)c2)cc(C2CC2)n1C | > 99.5 | > 100 µM
12 | CC(=O)N1CC[C@]2(C1)C(=O)Nc1cccc(C(=O)Nc3ccc4c(c3)CNC4)c12 | > 99.5 | > 100 µM
13 | N#Cc1cccc(-c2nc3c(C(=O)Nc4cccc(F)c4)cc(Cl)cc3[nH]2)c1 | > 99.5 | > 100 µM
14 | CC(C)NC(=O)C[C@H]1NCc2cc(NC(=O)c3cc(Cl)cc4[nH]ncc34)ccc21 | > 99.5 | > 100 µM
15 | O=C(NCC(F)F)[C@H](Nc1ccc2c(c1)CNC2)c1cc(Cl)cc2cccnc12 | 93 | 128 µM and 125 µM
16 | CC1(C)NCc2cc(NC(=O)c3cc(F)cc4[nH]ncc34)ccc21 | > 99.5 | > 100 µM
17 | Cc1c(C(=O)Nc2cccc(-c3ccoc3)c2)cc(C2CC2)n1C | > 99.5 | > 100 µM
18 | CN(C)C(=O)C[C@H]1NCc2cc(NC(=O)c3cc(Cl)cc4[nH]ncc34)ccc21 | > 99.5 | > 100 µM
19 | CS(=O)(=O)NC(=O)C[C@H]1NCc2cc(NC(=O)c3cc(Cl)cc4[nH]ncc34)ccc21 | > 296 | > 300 µM
20 | CC(C)(C)NC(=O)C[C@H]1NCc2cc(NC(=O)c3cc(Cl)cc4[nH]ncc34)ccc21 | > 99.5 | > 100 µM
21 | C[C@H]1NCc2ccc(NC(=O)c3cc(Cl)cc4[nH]ncc34)cc21 | > 99.5 | > 100 µM
22 | CNC(=O)C[C@H]1NCc2cc(NC(=O)c3cc(Cl)cc4[nH]ncc34)ccc21 | > 99.5 | > 100 µM
23 | O=C1Cc2c(cccc2C(=O)Nc2cc(Br)c3ncnn3c2)N1 | > 99.5 | > 100 µM
24 | O=C(Nc1ccc2c(c1)CNC2)c1cc(Cl)cc2[nH]c(-c3cccc(F)c3)nc12 | 2.64 | 17.4 µM and 12.8 µM
25 | C[C@]1(S(C)(=O)=O)C(=O)Nc2cc(F)cc(C(=O)Nc3ccc4c(c3)CNC4)c21 | > 99.5 | > 100 µM

Row | Compound | IC50 (Genome polyprotein [1]) [µM] | IC50 (Genome polyprotein [2])
26 | Cc1c(C(=O)Nc2ccc3c(c2F)CCN(C)C3=O)cc(C2CC2)n1C | > 99.5 | > 100 µM
27 | Cc1c(C(=O)Nc2cccc(Cn3cccn3)c2)cc(C2CC2)n1C | > 99.5 | > 100 µM
28 | O=C1Cc2c(cccc2C(=O)Nc2ccc(O[C@H]3CCOC3)nc2)N1 | > 99.5 | > 100 µM
29 | O=C1Cc2c(cccc2C(=O)Nc2cccc(-c3cn[nH]c3)c2)N1 | > 99.5 | > 100 µM
30 | O=C(Nc1ccc2c(c1)CN[C@H]2C1CC1)c1cc(F)cc2[nH]ncc12 | 13.5 | 15.7 µM and 16.1 µM
31 | Cc1c(C(=O)Nc2cc(C3CCOCC3)ccn2)cc(C2CC2)n1C | > 99.5 | > 100 µM
32 | N#Cc1cccc(-c2nc3c(C(=O)Nc4ccc(F)cc4)cc(Cl)cc3[nH]2)c1 | > 99.5 | > 100 µM
33 | Cc1c(C(=O)Nc2ccc3c(c2)C(=O)NC3)cc(C2CC2)n1C | > 99.5 | > 100 µM
34 | COC(=O)[C@H]1NCc2cc(NC(=O)c3cc(F)cc4[nH]ncc34)ccc21 | > 99.5 | > 100 µM
35 | N#Cc1cccc(-c2nc3c(C(=O)Nc4ccccn4)cc(Cl)cc3[nH]2)c1 | 28.9 | > 100 µM
36 | COCCN(C)C(=O)[C@H](Nc1ccc2c(c1)CNC2)c1cc(Cl)cc(C2CC2)c1 | > 99.5 | > 100 µM
37 | O=C1C[C@H](c2cccc(-c3cc(F)cc(C(=O)Nc4ccc5c(c4)CNC5)c3)c2)N1 | > 99.5 | > 100 µM
38 | CC(=O)N(c1ccc2c(c1)CNC2)[C@]1(c2cc(Cl)cc(C3CC3)c2)CCCN(C)C1=O | > 99.5 | > 100 µM
39 | O=C1Cc2c(cccc2C(=O)Nc2nc([C@H]3CCCOC3)cs2)N1 | > 99.5 | > 100 µM
40 | Cc1c(C(=O)Nc2cccc(CN3CCCC3=O)c2)cc(C2CC2)n1C | > 99.5 | > 100 µM
41 | CN(C)C(=O)C[C@H]1NCc2cc(NC(=O)c3cc(F)cc4[nH]ncc34)ccc21 | > 99.5 | 54.5 µM and 71.7 µM
42 | C[C@H]1NCc2cc(NC(=O)c3cc(F)cc4[nH]ncc34)ccc21 | 69.8 | 62.2 µM and 68.2 µM
43 | O=C(Nc1ccc2c(c1)CNC2)c1cc(Cl)cc2[nH]c(-c3ccccc3)nc12 | 3.31 | 51.8 µM and 21.4 µM
44 | O=C1Cc2c(cccc2C(=O)Nc2ccc(N3CCOC3=O)nc2)N1 | > 99.5 | > 100 µM
45 | Cc1cc(NC(=O)c2cc(C3CC3)n(C)c2C)ccc1OC1CCOCC1 | > 99.5 | > 100 µM
46 | O=C(Nc1ccc2c(c1)CN[C@H]2C(=O)O)c1cc(F)cc2[nH]ncc12 | 71.1 | 79.4 µM and > 100 µM
47 | Cc1c(C(=O)Nc2ccc3c(c2)CN(C)C3=O)cc(C2CC2)n1C | > 99.5 | > 100 µM
48 | Cn1nc(CNc2cc([C@H]3CCOC3)ccn2)cc1C1CC1 | > 99.5 | > 100 µM
49 | O=C([C@H](Nc1ccc2c(c1)CNC2)c1cc(Cl)cc(C2CC2)c1)N1CCOCC1 | > 99.5 | > 100 µM

From ChEMBL document CHEMBL5604063, “ASAP - DENV-2 NS2B-NS3 protease fluorescence dose response” (2024)
